From publication PMC3502156, “Anti-plasmodial action of de novo-designed, cationic, lysine-branched, amphipathic, helical peptides” (Malaria Journal, 2012)
Where “and” joins values, the source holds several entries; their conditions need not be identical. Identical values can stand only once. Like-named read-outs stand apart in the source and are kept apart here. Starred links: 1 amine or outer side, 2 acyl side, 3 side chain; linkers in the order of their positions; H or OH if unused. Positions of bridges follow the written chain, without caps; N, C: chain ends. Non-standard residues stand in square brackets, D forms with d. Residues, ends and D or L forms follow the SMILES beside them. Chains are numbered I, II in the order given. X1 = O=C(/C(=C/c1ccccc1)N[*:1])[*:2]

Tests used:
[1] = test system: P. falciparum INDO (CQ-resistant); assay: microbe, parasite or virus in culture; format: cell-based; settings: Plasmodium falciparum; ring stage synchronized, 48 hr, SYBR Green I fluorescence, medium with 10% human serum; ± SD of three independent observations
Procedure: Chloroquine-sensitive (3D7) and CQ-resistant (Dd2 and INDO) strains of P. falciparum were maintained in continuous culture according to the method of Trager and Jensen with minor modifications. Cultures were maintained in fresh group O^+ve human erythrocytes suspended at 4% haematocrit in complete medium {16.2 g/L RPMI 1640 containing 25 mM HEPES, 11.11 mM glucose (Gibco), 0.2% sodium bicarbonate (Sigma), 0.5% Albumax I (Gibco), 45 μg/litre hypoxanthine (Sigma) and 50 μg/litre gentamicin (Gibco)} and incubated at 37°C under a gas mixture 5% O2, 5% CO2, and 90% N2. Every day, the spent medium was replaced by fresh complete medium to propagate the culture. […] Parasitaemia was monitored by microscopic examination of Giemsa-stained blood smears. […]
For drug screening, SYBR green I based fluorescence assay was used as described previously by Smilkstein et al.[30]. […] Fluorescence was measured with a Victor fluorescence multi-well plate reader (Perkin Elmer) with excitation and emission wavelength centred at 485 and 530 nm, respectively. Fluorescence counts for CQ (0.1 μM for 3D7, 1 μM for INDO) were subtracted from counts in each well. […] Results of the above mentioned fluorescence-based assay were validated microscopically by examination of Giemsa-stained smears of peptide-treated parasite cultures. Statistical significance of relative potencies of peptides was determined by student’s T test.

[2] = test system: P. falciparum Dd2 (CQ-resistant); assay: microbe, parasite or virus in culture; format: cell-based, Plasmodium falciparum; settings: for Resistance index IC50 Dd2/ IC50 3D7: IC50 CQ resistant strain/ IC50 CQ sensitive strain
Procedure: (§1) Chloroquine-sensitive (3D7) and CQ-resistant (Dd2 and INDO) strains of P. falciparum were maintained in continuous culture according to the method of Trager and Jensen with minor modifications. Cultures were maintained in fresh group O^+ve human erythrocytes suspended at 4% haematocrit in complete medium {16.2 g/L RPMI 1640 containing 25 mM HEPES, 11.11 mM glucose (Gibco), 0.2% sodium bicarbonate (Sigma), 0.5% Albumax I (Gibco), 45 μg/litre hypoxanthine (Sigma) and 50 μg/litre gentamicin (Gibco)} and incubated at 37°C under a gas mixture 5% O2, 5% CO2, and 90% N2. Every day, the spent medium was replaced by fresh complete medium to propagate the culture. […] Parasitaemia was monitored by microscopic examination of Giemsa-stained blood smears. Synchronized ring stage parasite was obtained by 5% sorbitol treatment. Trophozoites and schizont-stage parasites were enriched by using Percoll gradient.
(§2) Stock solutions of peptides and CQ were prepared in water (milli-Q grade) while artemisinin stock solution was in dimethyl sulphoxide (DMSO). All stocks were then diluted with culture medium to achieve the required drug concentrations. The concentration of peptide solution in water was based on A280 [ϵ (M^-1 cm^-1) ΔF (didehydrophenylalanine) 19,000, W (Tryptophan) 5,000)]. Thus ϵ280 were 62,000, 124,000, 124,000 and 248,000 for ΔFm, (ΔFm)2, ΔFd and ΔFq respectively. The concentration of FITC-peptides was based on A495 [ϵ(M^-1 cm^-1) FITC 77,000 for (ΔFm)2 with one FITC and 154,000 for ΔFd with two FITC per molecule]. Drugs and peptides solutions were placed in 96-well flat bottom tissue culture grade plates (Corning).
(§3) For drug screening, SYBR green I based fluorescence assay was used as described previously by Smilkstein et al.[30]. Sorbitol synchronized ring stage parasites (haematocrit: 2%, parasitaemia: 1%, 100 μl) under normal culture conditions were incubated in the absence or presence of increasing concentrations of peptides in water. CQ and artemisinin were used as positive controls. […] After 48 hr of incubation 100 μl of SYBR Green I buffer [0.2 μl of 10,000 X SYBR Green I (Invitrogen) per ml of lysis buffer {Tris (20 mM; pH 7.5), EDTA (5 mM), saponin (0.008%; wt/vol), and Triton X-100 (0.08%; vol/vol)}] was added to each well, mixed twice gently with multi-channel pipette and incubated in dark at 37 °C for 1 h. Fluorescence was measured with a Victor fluorescence multi-well plate reader (Perkin Elmer) with excitation and emission wavelength centred at 485 and 530 nm, respectively. Fluorescence counts for CQ (0.1 μM for 3D7, 1 μM for INDO) were subtracted from counts in each well. The fluorescence counts were plotted against the drug concentration and IC50 (the 50% inhibitory concentration) was determined by analysis of dose–response curves. Results of the above mentioned fluorescence-based assay were validated microscopically by examination of Giemsa-stained smears of peptide-treated parasite cultures. Statistical significance of relative potencies of peptides was determined by student’s T test.

[3] = test system: P. falciparum 3D7 (chloroquine-sensitive); assay: microbe, parasite or virus in culture; format: cell-based, Plasmodium falciparum
Procedure: as §1, §2, §3

HeLa cells = format: cell-based; settings: 48 h
Procedure: The cytotoxic effects of ΔFd on mammalian cells was assessed by functional assay as described using HeLa cells cultured in RPMI containing 10% fetal bovine serum, 0.21% sodium bicarbonate (Sigma) and 50 μg/mL gentamycin (complete medium). Briefly, cells (10^4 cells/200 μl/well) were seeded into 96-well flat-bottom tissue culture plates in complete medium. […] DMSO (as positive inhibitor) was added at 10%. Twenty microlitres of a stock solution of MTT (5 mg/mL in 1X phosphate buffered saline) was added to each well, gently mixed and incubated for another 4 hr. After spinning the plate at 1500 rpm for 5 min, supernatant was removed and 100 μl of DMSO (stop agent) was added. Formation of formazon was read on a microtiter plate reader (Versa max tunable multi-well plate reader) at 570 nm. The 50% cytotoxic concentration (TC50) of drug was determined by analysis of dose–response curves.

[4] = test system: P. falciparum 3D7 (chloroquine-sensitive); assay: microbe, parasite or virus in culture; format: cell-based, Plasmodium falciparum; remark: listed apart in the source
[5] = test system: infected erythrocytes (PRBC); assay: Haemolysis assay, parasitized red cells; format: cell-based, Plasmodium falciparum; settings: 3 h
Procedure: (§4) Selectivity of haemolysis by peptides for infected erythrocytes (PRBC) vs uninfected erythrocytes (URBC) was examined by incubating the test molecules with URBCs and PRBCs respectively in phosphate-buffered saline (PBS). Briefly, fresh RBCs were spin washed (1600 RPM; 5 min) three times in PBS and re-suspended in PBS at 2% haematocrit. A 100 μl suspension was added to 96-well plate containing the peptides at different concentrations. […] After incubation at 37°C for 3 hr, the samples were centrifuged and supernatant was used to determine the haemolytic activity measured in terms of haemoglobin release as monitored by […]. Triton-treated control samples were diluted 10-fold before reading absorbance. […] Percent haemolysis has been expressed with reference to 100% haemolysis value assigned to positive control (triton X 100 treated RBCs). To study haemolytic susceptibility of parasitized cells, URBCs were replaced with varying percentages (10% and 20%) of mixed stage parasitized cells. […] Haemolysis of parasitized erythrocytes was also monitored microscopically by examining the Giemsa-stained smears. Parasitaemia of ΔFd treated and untreated cultures were microscopically counted for ring, trophozoite and schizont stages respectively. Susceptibility of different stages was compared with corresponding untreated control cultures.

[6] = test system: uninfected erythrocytes (URBC); assay: Haemolysis assay, uninfected red cells; format: cell-based, human; settings: 3 h
Procedure: as §4

[7] = test system: P. falciparum 3D7 trophozoites; assay: Immunofluorescence staining of MSP3 in ΔFd treated trophozoite cultures; format: cell-based, Plasmodium falciparum; settings: ΔFd 2.5 μM, 37°C, 6 hr; three independent observations
Procedure: Immunohistochemical Fluorescence staining of MSP3 in ∆Fd treated Trophozoite and Schizont cultures.
To probe mechanistic details of ∆Fd-mediated, premature parasite egress, P. falciparum 3D7 culture (2%
parasitaemia, 2% haematocrit) was incubated without (control) or with ∆Fd (2.5 µM) at 37°C for 6 hr in a final
volume of 100 µl made with RPMI (96 µl RPMI + 4 µl peptide solution). Smears were processed as follows: (a)
flooded with 2% BSA/PBS (1 hr, 37°C), (b) PBS washed and (c) flooded (1 hr, 370C) with polyclonal anti-MSP3
antibody produced in mouse (1: 100 dilution in 1% BSA/PBS), (d) PBS washed and (e) flooded with alexa fluor 488
labelled anti-mouse antibody (Sigma) (1: 500 dilution in 1% BSA/PBS, 1 hr, 370C in dark), (e) PBS washed and (f)
flooded with DAPI (4, 6-diamidino-2-phenylindole) (invitrogen) (500 ng/ml, 10 min, 370 C). After a final PBS wash
the smears were observed under Nikon eclipse fluorescence microscope using appropriate filters.

proteases = settings: branched dimer compared with linear dimer (ΔFm)2; cited from earlier work
Excerpt: Some important features of these peptides as drugs against malaria include their favourable resistance indices (Table 1) that allow them to rapidly kill both drug-sensitive and drug-resistant strains of malaria parasite with equal potencies, their amphipathic nature that gives them drug-like character, and their ability to permeabilize and penetrate biological membranes, which allows them to attack target cells both from the surface as well as intracellularly. In addition, the presence of the conformationally constrained, non-protein, amino acid didehydrophenylalanine in both ΔFd and (ΔFm)2 pr ...

Compound: C[C@@H]1CC[C@H]2[C@@H](C)C(=O)O[C@@H]3O[C@@]4(C)CC[C@@H]1[C@]32OO4 [Artemisinin, reference compound]
- IC50 [1]: 15 nM
- Resistance index IC50 Dd2/ IC50 3D7 [2]: 1
- IC50 ([2]; Plasmodium falciparum, DD2, ring stage synchronized, haematocrit 2%, parasitaemia 1%, 48 hr, SYBR Green I fluorescence, ± SD of three independent observations, read-out: IC50 P. falciparum Dd2): 16 nM
- IC50 ([3]; Plasmodium falciparum, 3D7, ring stage synchronized, haematocrit 2%, parasitaemia 1%, 48 hr, SYBR Green I fluorescence, ± SD of three independent observations, read-out: IC50 P. falciparum 3D7): 15 nM

Compound: CC(=O)NCC(=O)N/C(=C\c1ccccc1)C(=O)N[C@@H](CCCNC(=N)N)C(=O)N[C@@H](CCCCN)C(=O)N/C(=C\c1ccccc1)C(=O)N[C@@H](Cc1c[nH]cn1)C(=O)N[C@@H](CCCCN)C(=O)N/C(=C\c1ccccc1)C(=O)N[C@@H](Cc1c[nH]c2ccccc12)C(=O)N[C@@H](C)C(=O)NCCCC[C@H](NC(=O)[C@H](C)NC(=O)[C@H](Cc1c[nH]c2ccccc12)NC(=O)/C(=C/c1ccccc1)NC(=O)[C@H](CCCCN)NC(=O)[C@H](Cc1c[nH]cn1)NC(=O)/C(=C/c1ccccc1)NC(=O)[C@H](CCCCN)NC(=O)[C@H](CCCNC(=N)N)NC(=O)/C(=C/c1ccccc1)NC(=O)CNC(C)=O)C(N)=O [ΔFd] (I: Ac-G[X1]RK[X1]HK[X1]WAK-NH2 / II: Ac-G[X1]RK[X1]HK[X1]WA; amide I:11-II:C; N-terminus and C-terminus assumed)
- TC50 HeLa cells (HeLa cells): > 25000 nM
- increment in potency at 96 hr (two cycles) vs 48 hr (one cycle) ([4]; P. falciparum 3D7, SYBR Green assay): 1.1 fold
- IC70 ([4]; P. falciparum 3D7, dose used on trophozoite and schizont cultures): 2500 nM
- percentage haemolysis, mixed culture 10% parasitaemia [5]: 7%
- percentage haemolysis, mixed culture 20% parasitaemia [5]: 16%
- HC50 URBC [6]: > 50 µM
- Hemolytic Selectivity index (HC50 URBC/ IC50 Pf 3D7) [6]: > 35
- IC50 ([2]; Dd2 (CQ-resistant, 48 h)): 1600 ± 90 nM
- Resistance index IC50 Dd2/ IC50 3D7 [2]: 1.1 and ~ 1
- IC50 ([3]; 3D7 (chloroquine-sensitive, 48 h)): 1390 ± 100 nM
- anomalously egressed trophozoites with MSP3 staining [7]: ~ 40%
- stability against proteases (proteases): more stable against proteases
